One data set deals with HCT15/CL02. Nature of the data set: Multidrug resistance-reversing activity: effect on paclitaxel's cytotoxicity. The following applies: Homo sapiens, HCT-15, TAX alone. The data set is classed as cell-based. As to the method: (§1) The cyclic pentadepsipeptides of Chemical Formulas 1 and 2 were analyzed for MDR-reversing activity by comparing inhibitory activities against multidrug-resistant cancer cell lines (MES-SA/DX5 and HCT15/CL02) with those against non-multidrug-resistant cancer cell lines (MES-SA and HCT15). In this regard, the effects of the cyclic pentadepsipeptides of Chemical Formulas 1 and 2 on paclitaxel's cytotoxicity against MDR tumor cells were measured (Table 6).

For another data set, the system named is HCT15. The description is as above. Type of data set: cell-based. The following applies: Homo sapiens, HCT-15, TAX alone. As to the method:
as §1

For another data set, the system named is MES-SA/DX5. The data set is described as above. Type of data set: cell-based. The following applies: Homo sapiens, TAX alone. As for the experimental part: as §1
The subject of a further data set is MES-SA. The description is as above. The data set is classed as cell-based. To be noted: Homo sapiens, TAX alone. As for the experimental part:
as §1

In data set [1] the test system is NCI human tumor cell line screen. The following applies: cited from earlier work.
For the next data set, the system named is HCT-116 colon carcinoma. The following applies: cited from earlier work.
In data set [2] the test system is A549 non-small-cell lung cancer cell line. Nature of the data set: In vitro cytotoxicity, SRB method. Type of data set: cell-based, Human. The following applies: Homo sapiens, A549, read-out: EC50 (concentration inhibiting cell growth in vitro by 50%). As for the experimental part: (§2) Known cyclic hexadepsipeptides (beauvericin, enniatin H, I, and MK1688) and the compounds of Chemical Formulas 1 and 2 were evaluated for in vitro cytotoxicity against various non-multidrug-resistant human cancer cell lines and multidrug-resistant cancer cell lines using the SRB method.
(§3) Human non-small-cell lung cancer cell line (A549) ovarian cancer cell line (SK-OV-3), skin cancer cell line (SK-MEL-2), and uterine sarcoma cell line MES-SA and its multi-drug resistant subline (MES-SA/DX5) were purchased from the American Type Culture Collection (USA). Colorectal carcinoma cancer cell line (HCT-15) was provided by the National Cancer Institute (NCI). HCT15/CL02 cell lines were established from HCT15 cells by continuous and stepwise exposure of the cells to doxorubicin in the Korea Research Institute of Chemical Technology (Korea).

In data set [3] the test system is HCT15 colorectal carcinoma cancer cell line. Kind of data set: In vitro cytotoxicity, SRB method. To be noted: Homo sapiens, HCT-15, read-out: EC50 (concentration inhibiting cell growth in vitro by 50%). The data set is classed as cell-based, Human. As for the experimental part: as §2, §3
On the technique in general: Sulforhodamine B stains cellular protein and so reports cell mass.

Data set [4] deals with HCT15/CL02 cell line (doxorubicin-selected from HCT15). Nature of the data set: In vitro cytotoxicity, SRB method. Type of data set: cell-based, Human. To be noted: Homo sapiens, HCT-15, read-out: EC50 (concentration inhibiting cell growth in vitro by 50%). As to the method:
as §2, §3

For data set [5], the system named is MES-SA uterine sarcoma cell line. Kind of data set: In vitro cytotoxicity, SRB method. The data set is classed as cell-based, Human. To be noted: Homo sapiens, read-out: EC50 (concentration inhibiting cell growth in vitro by 50%). As for the experimental part:
as §2, §3

Data set [6] has as its system MES-SA/DX5 multi-drug resistant subline. Kind of data set: In vitro cytotoxicity, SRB method. The data set is classed as cell-based, Human. The following applies: Homo sapiens, MES-SA/Dx5, read-out: EC50 (concentration inhibiting cell growth in vitro by 50%). As for the experimental part: as §2, §3
For data set [7], the system named is SK-MEL-2 skin cancer cell line. Kind of data set: In vitro cytotoxicity, SRB method. Type of data set: cell-based, Human. The following applies: Homo sapiens, SK-MEL-2, read-out: EC50 (concentration inhibiting cell growth in vitro by 50%). As for the experimental part:
as §2, §3

Data set [8] relates to SK-OV-3 ovarian cancer cell line. Kind of data set: In vitro cytotoxicity, SRB method. Type of data set: cell-based, Human. To be noted: Homo sapiens, SK-OV-3, read-out: EC50 (concentration inhibiting cell growth in vitro by 50%). As for the experimental part:
as §2, §3

The subject of data set [9] is MDR cell lines (MES-SA/DX5 and HCT15/CL02). Nature of the data set: Multidrug resistance-reversing activity, summary in words. Type of data set: cell-based, Human. As for the experimental part:
The cyclic pentadepsipeptides of Chemical Formulas 1 and 2 were analyzed for MDR-reversing activity by comparing inhibitory activities against multidrug-resistant cancer cell lines (MES-SA/DX5 and HCT15/CL02) with those against non-multidrug-resistant cancer cell lines (MES-SA and HCT15). In this regard, the effects of the cyclic pentadepsipeptides of Chemical Formulas 1 and 2 on paclitaxel's cytotoxicity against MDR tumor cells were measured (Table 6). […].
Therefore, the N-methyl group in the cyclic pentadepsipeptide may be a factor crucial for the expression of the MDR reversal activity. […]

Data set [10] relates to Bacillus cereus ATCC 13061. Nature of the data set: Anti-bacterial activity, paper disc clear zone. To be noted: 0.1, 0.5, 1 and 2 mM on paper disc; 37° C., 24 hr. Type of data set: cell-based. As to the method: (§4) Assays for antibacterial activity were performed with 3 Gram-positive (Listeria monocytogenes ATCC 14028, Staphylococcus aureus ATCC 35556 and Bacillus cereus ATCC 13061) and 3 Gram-negative bacteria (Escherichia coli ATCC 8739, Pseudomonas aeruginosa ATCC 9026 and Salmonella typhimurium ATCC 14028). Each of the compounds of Chemical Formulas 1 and 2 was dissolved in different concentrations (0.1, 0.5, 1, and 2 mM) in dimethyl sulfoxide (DMSO). The solutions were applied to a sterile paper disc (5 mm diameter), followed by evaporating the DMSO solvent. Bacteria was inoculated at a density of 1×10^7 CFU/ml on Tryptic soy agar (TSA) and then, the paper disc was placed on the bacteria-inoculated agars. After incubation at 37° C. for 24 hr, the clear zone around each disc was observed and its diameter was measured.

For data set [11], the system named is Escherichia coli ATCC 8739. Kind of data set: Anti-bacterial activity, paper disc clear zone. The following applies: 0.1, 0.5, 1 and 2 mM on paper disc; 37° C., 24 hr. The data set is classed as cell-based. As for the experimental part: as §4
For data set [12], the system named is Listeria monocytogenes ATCC 14028. Kind of data set: Anti-bacterial activity, paper disc clear zone. Type of data set: cell-based. The following applies: 0.1, 0.5, 1 and 2 mM on paper disc; 37° C., 24 hr. As to the method:
as §4

The test system of data set [13] is Pseudomonas aeruginosa ATCC 9026. Nature of the data set: Anti-bacterial activity, paper disc clear zone. The data set is classed as cell-based. To be noted: 0.1, 0.5, 1 and 2 mM on paper disc; 37° C., 24 hr. As for the experimental part: as §4
The test system of data set [14] is Salmonella typhimurium ATCC 14028. Nature of the data set: Anti-bacterial activity, paper disc clear zone. Type of data set: cell-based. To be noted: 0.1, 0.5, 1 and 2 mM on paper disc; 37° C., 24 hr. As to the method: as §4
Data set [15] relates to Staphylococcus aureus ATCC 35556. Kind of data set: Anti-bacterial activity, paper disc clear zone. The data set is classed as cell-based. The following applies: 0.1, 0.5, 1 and 2 mM on paper disc; 37° C., 24 hr. As to the method:
as §4

Another data set concerns Aspergillus oryzae. Nature of the data set: Anti-fungal activity, paper disc on mycelia on PDA. The data set is classed as cell-based. The following applies: 1 mM; 25° C., 48 hr. As to the method: (§5) Inhibitory activity was performed against four fungus strains (Mucor rouxii, Penicillium citrinum, Fusarium oxysporum, and Aspergillus oryzae).
(§6) Drops of 1 and 10 mM solutions of compounds of Chemical Formulas 1 and 2 in methanol were loaded onto sterile paper discs (8 mm diameter) and the methanol solvent was evaporated under a hood. The paper discs were placed on fungus mycelia grown on potato dextrose agar. After incubation at 25° C. for 48 hr, clear zones around the discs were observed and their diameters were measured. A filter treated with pure methanol was used as a negative control.

A further data set has as its system Fusarium oxysporum. Nature of the data set: Anti-fungal activity, paper disc on mycelia on PDA. The data set is classed as cell-based. As to the method:
as §5, §6

The test system of the next data set is Mucor rouxii. Nature of the data set: Anti-fungal activity, paper disc on mycelia on PDA. The data set is classed as cell-based. As to the method:
as §5, §6

Another data set deals with Penicillium citrinum. Nature of the data set: Anti-fungal activity, paper disc on mycelia on PDA. Type of data set: cell-based. To be noted: 1 mM; 25° C., 48 hr. As to the method:
as §5, §6

Square brackets hold non-standard residues; d marks the D form. Peptide text beside a SMILES is read from it. ξ: configuration not given here. Hica(2S) = CC(C)C[C@H](O)C(=O)O; ξLac(3-iPr) = CC(C)CC(O)C(=O)O; NMeL = CN[C@@H](CC(C)C)C(=O)O

`CC(=O)O[C@H]1C(=O)[C@@]2(C)[C@H]([C@H](OC(=O)c3ccccc3)[C@]3(O)C[C@H](OC(=O)[C@H](O)[C@@H](NC(=O)c4ccccc4)c4ccccc4)C(C)=C1C3(C)C)[C@]1(OC(C)=O)CO[C@@H]1C[C@@H]2O` [TAX, paclitaxel]: the EC50 is more than 1 µM in the data set with HCT15/CL02, 0.00085 ± 0.00063 µM in the data set on HCT15, 0.01 ± 0.00053 µM with MES-SA/DX5 and 0.001 ± 0.0002 µM in the data set with MES-SA.
The GI50 is the concentration at which growth is held to half of that of the control. Regarding `CC(C)C[C@@H]1NC(=O)[C@H](Cc2ccccc2)NC(=O)[C@H](CC(C)C)N(C)C(=O)[C@H](C(C)C)NC(=O)[C@H](CC(C)C)OC1=O` [N-Methylsansalvamide] (cyclo(FL[Hica(2S)]V[NMeL])), in [1], the GI50 was 8.3 µM.
On to `CC(C)C[C@@H]1NC(=O)[C@H](C(C)C)NC(=O)[C@H](CC(C)C)OC(=O)[C@H](CC(C)C)NC(=O)[C@H](Cc2ccccc2)NC1=O` [sansalvamide] (cyclo(FL[Hica(2S)]VL)), for which the “in vitro IC50” value with HCT-116 colon carcinoma is 9.8 µg/mL.
In the case of `CC(C)CC1OC(=O)[C@H](CC(C)C)NC(=O)[C@H](Cc2ccccc2)NC(=O)[C@H](C(C)C)NC(=O)[C@H](CC(C)C)NC1=O` (some centres unmarked) [Com. 1, neo-sansalvamide] (cyclo(FL[ξLac(3-iPr)]LV)), the EC50 in data set [2] was found to be 11.7 ± 0.55 µM; in data set [3] it was 9.95 ± 1 µM; in data set [4], 22.1 ± 2.45 µM; in [5], 11.8 ± 0.13 µM; in data set [6], 19.4 ± 1.1 µM; in data set [7], 14 ± 1.32 µM. The EC50 in [8] came out at 10.4 ± 0.64 µM. The “Effect on the cytotoxicity of paclitaxel against MDR cell lines” value in data set [9] was “increased the cytotoxicity of paclitaxel against MDR cell lines, but only slightly”. For the same compound, the “Inhibitory activity (clear zone around disc)” value in data set [10], in [11], in data set [12], in data set [13], in data set [14] and in [15] was “Neither the compound of Chemical Formula 1 nor Chemical Formula 2 showed inhibitory activity” throughout. For the same compound, the “Inhibitory activity on mycelial growth” value in the data set with Aspergillus oryzae is on record as “No inhibitory activities were detected”; in the data set on Fusarium oxysporum (1 mM, 25° C., 48 hr), “No inhibitory activities were detected”; with Mucor rouxii (1 mM, 25° C., 48 hr), “No inhibitory activities were detected”; in the data set on Penicillium citrinum it was “No inhibitory activities were detected”. Moreover, the “Antifungal test, overall result” value in the data set with Fusarium oxysporum is “inhibitory against Mucor rouxii, and Fusarium oxysporum, weakly”; in the data set on Mucor rouxii it was “inhibitory against Mucor rouxii, and Fusarium oxysporum, weakly”. For the same compound, the “Clear zone / inhibitory effect on mycelium” value in the data set with Fusarium oxysporum (10 mM, 25° C., 48 hr) is listed as “did not produce a clear zone”. Moreover, in the data set with Mucor rouxii (10 mM, 25° C., 48 hr), the Clear zone entry is on record as “no clear zones were observed”. Also, the “Hyphal growth near the paper disc” value in the data set with Mucor rouxii (10 mM, 25° C., 48 hr) was “hyphal growth of Mucor rouxii was reduced”.

Source of the values: patent publication US9260485B2 (priority 2009, dated 2016).
